Test results taken from ChEMBL document CHEMBL5512616, “pH regulators and their inhibitors in tumor microenvironment” (Eur J Med Chem, 2024).
Converted amounts (≈) assume the structure as drawn. Each block holds one compound with its values, some of them ahead of it.

What was measured:
Carbonic anhydrase 2 [1] = biological target: T1, Carbonic anhydrase 2 (Homo sapiens, UniProt P00918)
Carbonic anhydrase 1 = Carbonic anhydrase 1 (Homo sapiens, UniProt P00915)
Carbonic anhydrase 9 [2] = biological target: T2, Carbonic anhydrase 9 (Homo sapiens, UniProt Q16790)
BT-549 = assay: cells; conditions: Homo sapiens
KB = assay: cells; conditions: Homo sapiens
SK-MEL = assay: cells; conditions: Homo sapiens
SK-OV-3 = assay: cells; conditions: Homo sapiens
Carbonic anhydrase 2 [3] = biological target: T1, Carbonic anhydrase 2; remark: listed apart in the source
Carbonic anhydrase 9 [4] = biological target: T2, Carbonic anhydrase 9; remark: listed apart in the source
Carbonic anhydrase 2 [5] = biological target: T1, Carbonic anhydrase 2; remark: listed apart in the source
Carbonic anhydrase 9 [6] = biological target: T2, Carbonic anhydrase 9; remark: listed apart in the source
MCF7 [7] = assay: cells; conditions: Homo sapiens, MCF7, 96 h
MCF7 [8] = assay: cells; conditions: Homo sapiens, MCF7, 72 h
Carbonic anhydrase 9 [9] = biological target: T2, Carbonic anhydrase 9; remark: listed apart in the source
Carbonic anhydrase 9 [10] = biological target: T2, Carbonic anhydrase 9; remark: listed apart in the source
[11] = biological target: 72 kDa type IV collagenase (Homo sapiens, UniProt P08253); assay: Inhibition of MMP2 (unknown origin)
Chain of 72 kDa type IV collagenase (P08253 whole entry): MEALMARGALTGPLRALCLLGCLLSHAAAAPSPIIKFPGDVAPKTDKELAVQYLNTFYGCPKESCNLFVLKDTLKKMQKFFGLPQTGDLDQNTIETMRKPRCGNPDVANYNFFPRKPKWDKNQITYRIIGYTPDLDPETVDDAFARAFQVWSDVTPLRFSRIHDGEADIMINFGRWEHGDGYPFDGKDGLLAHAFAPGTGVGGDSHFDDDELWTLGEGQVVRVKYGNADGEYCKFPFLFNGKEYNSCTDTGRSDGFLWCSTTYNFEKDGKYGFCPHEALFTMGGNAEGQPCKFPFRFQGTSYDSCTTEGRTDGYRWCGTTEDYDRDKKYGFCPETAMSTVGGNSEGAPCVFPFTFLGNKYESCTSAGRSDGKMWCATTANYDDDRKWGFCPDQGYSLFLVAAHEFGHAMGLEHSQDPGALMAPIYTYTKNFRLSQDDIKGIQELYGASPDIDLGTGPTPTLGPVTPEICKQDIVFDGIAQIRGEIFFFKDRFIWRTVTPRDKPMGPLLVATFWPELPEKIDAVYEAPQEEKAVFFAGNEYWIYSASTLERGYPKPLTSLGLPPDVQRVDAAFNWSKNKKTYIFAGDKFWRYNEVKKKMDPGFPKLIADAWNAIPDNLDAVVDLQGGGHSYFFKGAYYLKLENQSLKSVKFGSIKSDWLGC

Carbonic anhydrase 9 [12] = biological target: T2, Carbonic anhydrase 9; remark: listed apart in the source
Carbonic anhydrase 2 [13] = biological target: T1, Carbonic anhydrase 2; remark: listed apart in the source
MCF7 [14] = assay: cells; conditions: Homo sapiens, MCF7, 72 h; remark: listed apart in the source
[15] = biological target: T3, Monocarboxylate transporter 1 (Homo sapiens, UniProt P53985)
T3 sequence (P53985 whole entry): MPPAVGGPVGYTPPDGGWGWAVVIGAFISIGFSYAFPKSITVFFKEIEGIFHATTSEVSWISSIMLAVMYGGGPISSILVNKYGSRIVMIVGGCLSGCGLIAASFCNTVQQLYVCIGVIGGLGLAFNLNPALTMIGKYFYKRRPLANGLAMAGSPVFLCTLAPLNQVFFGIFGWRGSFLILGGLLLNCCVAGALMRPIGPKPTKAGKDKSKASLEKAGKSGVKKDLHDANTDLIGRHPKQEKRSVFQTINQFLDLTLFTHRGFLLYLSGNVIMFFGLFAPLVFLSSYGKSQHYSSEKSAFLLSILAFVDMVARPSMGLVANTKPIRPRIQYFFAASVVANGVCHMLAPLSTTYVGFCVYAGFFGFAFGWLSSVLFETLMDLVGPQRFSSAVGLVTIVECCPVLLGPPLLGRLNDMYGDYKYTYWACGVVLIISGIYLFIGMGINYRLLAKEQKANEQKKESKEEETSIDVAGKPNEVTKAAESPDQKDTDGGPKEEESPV

[16] = biological target: T4, Monocarboxylate transporter 4 (Homo sapiens, UniProt O15427)
T4 sequence (O15427 whole entry): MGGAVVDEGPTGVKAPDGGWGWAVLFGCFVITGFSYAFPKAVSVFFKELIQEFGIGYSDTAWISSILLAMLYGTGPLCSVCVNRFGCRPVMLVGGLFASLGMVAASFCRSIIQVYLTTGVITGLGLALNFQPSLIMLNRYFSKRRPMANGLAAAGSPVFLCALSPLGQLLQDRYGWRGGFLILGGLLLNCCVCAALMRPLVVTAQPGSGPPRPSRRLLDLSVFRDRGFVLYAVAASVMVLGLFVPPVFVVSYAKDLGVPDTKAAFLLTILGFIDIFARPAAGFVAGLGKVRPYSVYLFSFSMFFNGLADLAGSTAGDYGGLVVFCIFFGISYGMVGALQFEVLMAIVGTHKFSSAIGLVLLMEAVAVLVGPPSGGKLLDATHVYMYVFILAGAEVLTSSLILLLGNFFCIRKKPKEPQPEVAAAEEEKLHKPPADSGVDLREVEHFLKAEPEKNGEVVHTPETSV

Chain of Carbonic anhydrase 1 (P00915 whole entry): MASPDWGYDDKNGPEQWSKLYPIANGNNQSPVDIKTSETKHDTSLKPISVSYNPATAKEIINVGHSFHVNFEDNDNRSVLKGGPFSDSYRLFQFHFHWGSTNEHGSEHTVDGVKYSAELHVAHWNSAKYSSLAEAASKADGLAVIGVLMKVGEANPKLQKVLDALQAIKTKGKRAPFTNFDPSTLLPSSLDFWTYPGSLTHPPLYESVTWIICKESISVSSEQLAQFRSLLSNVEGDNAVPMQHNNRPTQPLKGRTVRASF

IC50 (MCF7 [7]): 7020 nM
IC50 (MCF7 [8]): 11100 nM
Ki (Carbonic anhydrase 9 [9]): 1.25 nM
Compound: C=C(C)[C@@H]1CC[C@]2(COS(N)(=O)=O)CC[C@]3(C)[C@H](CC[C@@H]4[C@@]5(C)CC[C@H](OC(C)=O)C(C)(C)[C@@H]5CC[C@]43C)[C@@H]12

IC50 (Carbonic anhydrase 9 [10]): 6220 nM
IC50 [11]: 15000 nM
Compound: N[C@H](CNC(=O)P(=O)(O)O)CNS(=O)(=O)c1ccc(Oc2ccccc2)cc1

IC50 [15]: 2500 nM
IC50 [16]: 40 nM
Compound: CCOC(=O)Oc1c(OC)cc(C(=O)O[C@@H]2C[C@@H]3CN4CCc5c([nH]c6cc(OC)ccc56)[C@H]4C[C@@H]3[C@H](C(=O)OC)[C@H]2OC)cc1OC [SYROSINGOPINE]

The remaining lines, values behind:

Compound: NS(=O)(=O)c1ccc(N=C2C(=O)Nc3ccccc32)cc1
Ki (Carbonic anhydrase 2 [1]): 33 nM
IC50 (Carbonic anhydrase 1): 65 nM
Ki (Carbonic anhydrase 9 [2]): 6.5 nM

Compound: COc1cc(/C=C/C(=O)O)ccc1OCc1cn(-c2cccc([N+](=O)[O-])c2)nn1
IC50 (BT-549): 9.4 µg/mL (≈ 23.7 µM)
IC50 (KB): 8 µg/mL (≈ 20.2 µM)
IC50 (SK-MEL): 9 µg/mL (≈ 22.7 µM)
IC50 (SK-OV-3): > 10 µg/mL

Compound: CC(C)(O)[C@@H](O)COc1c2occc2cc2ccc(=O)oc12
Ki (Carbonic anhydrase 2 [3]): > 10000 nM
Ki (Carbonic anhydrase 9 [4]): 27.5 nM
Ki (Carbonic anhydrase 2 [5]): > 10000 nM
Ki (Carbonic anhydrase 9 [6]): 27.5 nM

Compound: CC(C)n1nc(C(=O)Nc2ccc3c(c2)C=CS(=O)(=O)O3)c2ccccc21
Ki (Carbonic anhydrase 9 [12]): 215 nM
Ki (Carbonic anhydrase 2 [13]): > 10000 nM

Compound: C=C(C)[C@@H]1CC[C@]2(C(=O)O)CC[C@]3(C)[C@H](CC[C@@H]4[C@@]5(C)CC[C@H](O)C(C)(C)[C@@H]5CC[C@]43C)[C@@H]12 [BETULINIC ACID]
IC50 (MCF7 [7]): 14000 nM
IC50 (MCF7 [14]): 16400 nM
